Measured values from patent publication US7919625B2, “4-anilino-3-quinolinecarbonitriles for the treatment of chronic myelogenous leukemia (CML)” (Wyeth LLC, priority 2003, dated 2011).
One block for each molecule: values may come before it.

What was measured:
[1] = target: T1, Src (Homo sapiens, UniProt P12931); test: Src kinase assay, ELISA format
[2] = tested on: Rat 2 cells infected with Abl-murine leukemia virus; test: Inhibition of v-Abl-dependent proliferation; assay type: cell-based; conditions: Rat2
Procedure: Ultra-low cluster plates (Corning Costar, Acton, Mass.) are seeded with 10,000 cells per well on day 1. Alternatively, Ultra-low cluster plates (Costar 3474) treated with Sigmacote (Sigma, St. Louis, Mo.), rinsed with 70% ethanol, after drying in the hood, are seeded with 5000 cells.
Alternatively relative cell numbers were determined by the CellTiter-Glo™ (Promega) method. All procedures were identical except that cell number was reduced to 1000 cells/well and CellTiter-Glo reagent was added instead of MTS reagent, with luminescence as the readout.
(§1) • A. Inhibition of v-Abl-dependent proliferation. Rat 2 cells infected with Abl-murine leukemia virus were grown and treated as described for the Src cell assay. All measurements were identical except for the cell type that Cell-Titer Glo (Promega) was used to monitor relative cell number. In this case, the reagent was used as recommended by the manufacturer and luminescence was measured on a Wallac Victor plate reader. • B. Inhibition of CML cell proliferation. KU812 and K562 cells were grown in RPMI1640 medium supplemented with 10% fetal calf serum and glutamine with 50 μg/ml gentamicin. Cells were plated at 1000-2000 cells per well on Day 0. On Day 1, compound was added such that the final DMSO concentration was no greater than 0.1%. On Day 4, Cell-Titer Glo was added according to manufacturer specifications and luminescence was determined on a Wallac Victor plate reader.

[3] = tested on: K562 cells; test: Inhibition of CML cell proliferation, K562; assay type: cell-based; conditions: Homo sapiens
Procedure: as §1

[4] = tested on: KU812 cells; test: Inhibition of CML cell proliferation, KU812; assay type: cell-based; conditions: Homo sapiens
Procedure: as §1

[5] = tested on: K562 xenografts; test: K562 xenografts in nude mice, tumor-free survival; assay type: in vivo
Excerpt: Nude mice with K562 xenografts were examined on days 11, 22, 36, and 43. Data is presented as a ratio of animals lacking detectable tumors relative to the number of animals per group. K562 tumors imbedded in Matrigel were staged in nude mice until tumors reached 200-300 mm^3.

[6] = target: T1, Src; test: Src kinase assay, homogeneous solution-based (Lance format); assay type: biochemical; parameters: purchased Upstate Biotechnologies, Lake Placid, N.Y; conditions: read-out: Src enzyme IC50
[7] = target: T2, c-Abl (Homo sapiens, UniProt P00519); test: Homogeneous solution-based Abl kinase assay (Lance); assay type: biochemical; conditions: read-out: c-Abl Enzyme IC50
T2 construct: purchased Panvera P3049

[8] = read-out: Src enzyme IC50, ELISA format

T1 sequence (P12931 whole entry): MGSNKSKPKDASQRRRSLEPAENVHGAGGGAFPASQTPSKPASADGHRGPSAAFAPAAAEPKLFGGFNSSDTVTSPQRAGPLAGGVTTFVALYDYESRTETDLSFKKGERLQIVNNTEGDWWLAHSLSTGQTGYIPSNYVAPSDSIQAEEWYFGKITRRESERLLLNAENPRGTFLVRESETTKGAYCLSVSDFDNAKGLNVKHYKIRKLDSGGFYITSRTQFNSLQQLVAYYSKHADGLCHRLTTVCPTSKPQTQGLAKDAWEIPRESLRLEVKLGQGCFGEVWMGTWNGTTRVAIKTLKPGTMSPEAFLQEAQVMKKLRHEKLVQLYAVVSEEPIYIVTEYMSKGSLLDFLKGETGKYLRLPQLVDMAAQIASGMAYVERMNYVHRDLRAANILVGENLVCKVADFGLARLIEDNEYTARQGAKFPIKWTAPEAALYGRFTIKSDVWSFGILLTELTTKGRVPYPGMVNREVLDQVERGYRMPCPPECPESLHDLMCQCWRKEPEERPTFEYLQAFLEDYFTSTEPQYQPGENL
T2 sequence (P00519 whole entry): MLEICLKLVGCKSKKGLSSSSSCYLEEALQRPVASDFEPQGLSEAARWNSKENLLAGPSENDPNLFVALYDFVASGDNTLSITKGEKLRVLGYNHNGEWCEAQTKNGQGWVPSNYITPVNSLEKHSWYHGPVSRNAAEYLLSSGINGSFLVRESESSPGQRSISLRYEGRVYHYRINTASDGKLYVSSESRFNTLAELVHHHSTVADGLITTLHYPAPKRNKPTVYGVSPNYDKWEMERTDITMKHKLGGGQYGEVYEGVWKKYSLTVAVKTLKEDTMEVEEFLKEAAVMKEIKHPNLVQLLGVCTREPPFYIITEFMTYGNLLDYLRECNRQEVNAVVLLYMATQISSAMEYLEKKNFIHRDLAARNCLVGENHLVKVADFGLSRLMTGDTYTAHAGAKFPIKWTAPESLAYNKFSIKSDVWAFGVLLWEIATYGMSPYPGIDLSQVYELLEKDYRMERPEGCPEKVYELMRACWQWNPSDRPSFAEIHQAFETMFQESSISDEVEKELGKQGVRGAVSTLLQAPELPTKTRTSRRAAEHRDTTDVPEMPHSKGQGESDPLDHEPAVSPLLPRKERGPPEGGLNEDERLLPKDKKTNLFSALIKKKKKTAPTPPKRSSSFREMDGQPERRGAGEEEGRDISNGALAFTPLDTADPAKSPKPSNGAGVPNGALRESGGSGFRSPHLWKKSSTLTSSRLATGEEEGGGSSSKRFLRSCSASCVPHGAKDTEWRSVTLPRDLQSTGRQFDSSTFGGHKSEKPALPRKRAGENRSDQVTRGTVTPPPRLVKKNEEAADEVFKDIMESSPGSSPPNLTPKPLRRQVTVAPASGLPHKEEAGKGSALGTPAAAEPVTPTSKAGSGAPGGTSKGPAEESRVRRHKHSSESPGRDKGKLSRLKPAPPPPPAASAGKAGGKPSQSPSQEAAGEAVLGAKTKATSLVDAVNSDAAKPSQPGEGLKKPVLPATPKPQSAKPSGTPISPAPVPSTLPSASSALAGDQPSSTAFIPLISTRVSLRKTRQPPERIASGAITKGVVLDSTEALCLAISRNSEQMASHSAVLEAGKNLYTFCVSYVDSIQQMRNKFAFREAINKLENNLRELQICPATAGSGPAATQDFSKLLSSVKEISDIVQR

- melting point: 127 to 130 °C
SMILES: CCOc1cc2c(Nc3cc(OC)c(Cl)cc3Cl)c(C#N)cnc2cc1OCCCN1CCN(CC)CC1 [Example 11, 4-[(2,4-Dichloro-5-methoxyphenyl)amino]-6-ethoxy-7-[3-(4-ethylpiperazin-1-yl)propoxy]quinoline-3-carbonitrile]

- IC50 [1, 8]: 1.1 nM
SMILES: CCCN1CCN(CCCOc2cc3ncc(C#N)c(Nc4cc(OC)c(Cl)cc4Cl)c3cc2OC)CC1 [Example 15, 4-[(2,4-Dichloro-5-methoxyphenyl)amino]-6-methoxy-7-[3-(4-propyl-1-piperazinyl)propoxy]-3-quinolinecarbonitrile]

- melting point: 141 to 143 °C
SMILES: CCOc1cc2c(Nc3cc(OC)c(Cl)cc3Cl)c(C#N)cnc2cc1OCCN1CCN(C)CC1 [Example 13, 4-[(2,4-Dichloro-5-methoxyphenyl)amino]-6-ethoxy-7-[2-(4-methyl-1-piperazinyl)ethoxy]quinoline-3-carbonitrile]

- melting point: 174 to 176 °C
SMILES: CCOc1cc2c(Nc3cc(OC)c(Cl)cc3Cl)c(C#N)cnc2cc1OCCC1CCN(C)CC1 [Example 14, 4-[(2,4-Dichloro-5-methoxyphenyl)amino]-6-ethoxy-7-[2-(1-methylpiperidin-4-yl)ethoxy]quinoline-3-carbonitrile]

- melting point: 148 to 151 °C
SMILES: CCOc1cc2c(Nc3cc(OC)c(Cl)cc3Cl)c(C#N)cnc2cc1OCCCC1CCN(C)CC1 [Example 12, 4-[(2,4-Dichloro-5-methoxyphenyl)amino]-6-ethoxy-7-[3-(1-methylpiperidin-4-yl)propoxy]quinoline-3-carbonitrile]

- IC50 [6]: 230 nM
SMILES: CCOc1cc(Nc2c(C#N)cnc3cc(OCC4CCN(C)CC4)c(OC)cc23)c(Cl)cc1Cl [Example 22, 4-[(2,4-dichloro-5-ethoxyphenyl)amino]-6-methoxy-7-[(1-methylpiperidin-4-yl)methoxy]quinoline-3-carbonitrile]

More lines, now with the values behind:

SMILES: COc1cc(Nc2c(C#N)cnc3cc(OCCN4CCN(C)CC4)c(OC)cc23)c(Cl)cc1Cl [Example 3, 4-[(2,4-Dichloro-5-methoxyphenyl)amino]-6-methoxy-7-[2-(4-methyl-1-piperazinyl)ethoxy]-3-quinolinecarbonitrile]
- melting point: 165 to 167 °C
- IC50 [2]: 440 nM
- IC50 [3]: 48 nM

SMILES: CCN1CCN(CCCOc2cc3ncc(C#N)c(Nc4cc(OC)c(Cl)cc4Cl)c3cc2OC)CC1 [Example 2, 4-[(2,4-Dichloro-5-methoxyphenyl)amino]-7-[3-(4-ethyl-1-piperazinyl)propoxy]-6-methoxy-3-quinolinecarbonitrile]
- IC50 [1, 8]: 0.77 nM

SMILES: COc1cc(Nc2c(C#N)cnc3cc(OCCCN4CCN(C)CC4)c(OC)cc23)c(Cl)cc1Cl [Example 1, 4-[(2,4-Dichloro-5-methoxyphenyl)amino]-6-methoxy-7-[3-(4-methyl-1-piperazinyl)propoxy]-3-quinolinecarbonitrile]
- IC50 [4]: 5 nM
- IC50 [2]: 76 nM
- Tumor-free survival (animals lacking detectable tumors / animals per group) ([5]; 50 mg/kg p.o. once a day for 5 days, day 11): 6/8
- Tumor-free survival (animals lacking detectable tumors / animals per group) ([5]; 50 mg/kg p.o. once a day for 5 days, day 22): 5/8
- Tumor-free survival (animals lacking detectable tumors / animals per group) ([5]; 50 mg/kg p.o. once a day for 5 days, day 36): 4/8
- Tumor-free survival (animals lacking detectable tumors / animals per group) ([5]; 50 mg/kg p.o. once a day for 5 days, day 43): 4/8
- Tumor-free survival (animals lacking detectable tumors / animals per group) ([5]; 75 mg/kg p.o. once a day for 5 days, day 11): 7/8
- Tumor-free survival (animals lacking detectable tumors / animals per group) ([5]; 75 mg/kg p.o. once a day for 5 days, day 22): 6/8
- Tumor-free survival (animals lacking detectable tumors / animals per group) ([5]; 75 mg/kg p.o. once a day for 5 days, day 36): 6/8
- Tumor-free survival (animals lacking detectable tumors / animals per group) ([5]; 75 mg/kg p.o. once a day for 5 days, day 43): 6/8
- Tumor-free survival (animals lacking detectable tumors / animals per group) ([5]; 100 mg/kg p.o. once a day for 5 days, day 11): 8/8
- Tumor-free survival (animals lacking detectable tumors / animals per group) ([5]; 100 mg/kg p.o. once a day for 5 days, day 22): 7/8
- Tumor-free survival (animals lacking detectable tumors / animals per group) ([5]; 100 mg/kg p.o. once a day for 5 days, day 36): 7/8
- Tumor-free survival (animals lacking detectable tumors / animals per group) ([5]; 100 mg/kg p.o. once a day for 5 days, day 43): 7/8
- Tumor-free survival (animals lacking detectable tumors / animals per group) ([5]; 150 mg/kg p.o. once a day for 5 days, day 11): 8/8
- Tumor-free survival (animals lacking detectable tumors / animals per group) ([5]; 150 mg/kg p.o. once a day for 5 days, day 22): 8/8
- Tumor-free survival (animals lacking detectable tumors / animals per group) ([5]; 150 mg/kg p.o. once a day for 5 days, day 36): 8/8
- Tumor-free survival (animals lacking detectable tumors / animals per group) ([5]; 150 mg/kg p.o. once a day for 5 days, day 43): 8/8
- IC50 [3]: 20 nM

SMILES: COc1cc(Nc2c(C#N)cnc3cc(OCCCC4CCN(C)CC4)c(OC)cc23)c(Cl)cc1Cl [Example 7, 4-[(2,4-Dichloro-5-methoxyphenyl)amino]-6-methoxy-7-[3-(1-methylpiperidin-4-yl)propoxy]quinoline-3-carbonitrile]
- IC50 [4]: 5.8 nM
- IC50 [2]: 185 nM
- IC50 [3]: 18 nM

SMILES: CCN1CCN(CCOc2cc3ncc(C#N)c(Nc4cc(OC)c(Cl)cc4Cl)c3cc2OC)CC1 [Example 4, 4-[(2,4-Dichloro-5-methoxyphenyl)amino]-7-[2-(4-ethyl-1-piperazinyl)ethoxy]-6-methoxy-3-quinolinecarbonitrile]
- melting point: 101 to 105 °C

SMILES: CCOc1cc2c(Nc3cc(OC)c(Cl)cc3Cl)c(C#N)cnc2cc1OCC1CCN(C)CC1 [Example 10, 4-[(2,4-Dichloro-5-methoxyphenyl)amino]-6-ethoxy-7-[(1-methylpiperidin-4-yl)methoxy]quinoline-3-carbonitrile]
- melting point: 182 to 186 °C

SMILES: CCOc1cc2c(Nc3cc(OC)c(Cl)cc3Cl)c(C#N)cnc2cc1OCCCN1CCN(C)CC1 [Example 9, 4-[(2,4-Dichloro-5-methoxyphenyl)amino]-6-ethoxy-7-[3-(4-methylpiperazin-1-yl)propoxy]quinoline-3-carbonitrile]
- IC50 [1]: 1.2 nM
- melting point: 137 to 138 °C

SMILES: CCN1CCC(COc2cc3ncc(C#N)c(Nc4cc(OC)c(Cl)cc4Cl)c3cc2OC)CC1 [Example 8, 4-[(2,4-Dichloro-5-methoxyphenyl)amino]-7-[(1-ethylpiperidin-4-yl)methoxy]-6-methoxyquinoline-3-carbonitrile]
- melting point: 192 to 195 °C

SMILES: COc1cc(Nc2c(C#N)cnc3cc(OCC4CCN(C)CC4)c(OC)cc23)c(Cl)cc1Cl [Example 5, 4-[(2,4-Dichloro-5-methoxyphenyl)amino]-6-methoxy-7-[(1-methylpiperidin-4-yl)methoxy]-3-quinolinecarbonitrile]
- IC50 [4]: 13.4 nM
- IC50 [7]: 2.9 nM
- IC50 [2]: 617 nM
- IC50 [3]: 39 nM

SMILES: COc1cc(Nc2c(C#N)cnc3cc(OCCC4CCN(C)CC4)c(OC)cc23)c(Cl)cc1Cl [Example 6, 4-[(2,4-Dichloro-5-methoxyphenyl)amino]-6-methoxy-7-[2-(1-methylpiperidin-4-yl)ethoxy]-3-quinolinecarbonitrile]
- IC50 [4]: 14 nM
- IC50 [7]: 2.9 nM
- IC50 [2]: 458 nM
- IC50 [3]: 41 nM
